{"source": "patent US20260069693A1", "about": "“UROLITHINS AND T-CELL MEDIATED IMMUNE RESPONSE” (priority 2022, published 2026)", "key": {"[1]": {"system": "Th1/Th17 cell infiltration", "details": "model of EAE; cited from earlier work"}, "Splenic murine T cells": {"system": "Splenic murine T cells", "assay": "aCD3/aCD28 stimulation of murine T cells in presence of UA, flow cytometry", "type": "cell-based", "description": "Mitochondrial remodelling has been previously associated with alterations in T cell fate (Buck et al., 2016; Yu et al., 2020b). Given the observed dependency of the UA effect on CD8^+ T cells, the inventors wondered whether UA may also directly affect T cell fate commitment. Purified T cells from FVB mice were stimulated with aCD3/aCD28 beads to induce T cell differentiation into effector T cell subsets in the presence or absence of UA for up to 72 hours (FIG. 2A). […] Previously, a rare naïve-like subset of T cells with enhanced stemness capabilities, termed T memory stem cells (TSCM) has been identified (Gattinoni et al., 2009). TSCM are marked by extreme longevity, their ability to self-renew, and potential for immune reconstitution (Gattinoni et al., 2017) which translates into potent anti-tumor immunity. Phenotypically, TSCM represent a subset of minimally differentiated T cells, which share a CD44^loCD62L^hi phenotype with naïve T cells, but are phenotypically distinct by expressing high levels of Sca1 (Gattinoni et al., 2009). […] This was associated with reduced cyclin D1 expression (not shown), in line with previous observations that link TSCM reprogramming to halted proliferation (Gattinoni et al., 2009; Verma et al., 2021).\n(§1) Splenic murine T cells were isolated from mice aged 6-20 weeks by negative selection with EasySep mouse T cell isolation kit (Stem cell) according to the manufacturer's instructions. To monitor T cell proliferation, purified T cells were loaded with CellTrace Violet (C34557 ThermoFisher Scientific). T cell activation was initiated using αCD3/CD28 activation beads (11456D; ThermoFisher Scientific) at a ratio of 25 μl dynabeads per 0.5×10^6 T-cells. Cells were activated with 25-50 μM Urolithin A (Tocris) or DMSO in T cell activation Medium (RPMI (ThermoFisher Scientific) 10% FBS (South America origin), 10 mM Hepes (Sigma), 1× Non-Essential Amino Acid, 1 mM Sodium Pyruvate, 50 μM B-Mercaptoethanol, 100 U/ml penicillin, 100 μg/ml streptomycin and 2 mM Glutamax (ThermoFisher Scientific) for the indicated durations. In selected experiments, cells were stimulated in the presence of inhibitors, namely TCF1i (ICG-001; SelleckChem; 10 μM) and PGC-1αi (SR-18292, Sigma-Aldrich; 10 μm,). For subsequent analysis, activating beads were magnetically removed prior antibody staining. For human T cells, peripheral blood mononuclear cells were purified with a Ficoll-Paque (GE healthcare) gradient. T cells were enriched with EasySep Human T Cell Isolation Kit (StemCell) and activated with dynabead Human T-Activator CD3/CD28 for T Cell Expansion and Activation Kit (11131D; ThermoFisher Scientific), similar to murine T cell stimulation. […]\nFor flow cytometric analysis of mitochondria and lysosomes 500 μl of Mitotracker Red (200 nM; ThermoFisher) or Lysotracker Red DND-99 (75 nM; ThermoFisher) were applied followed by surface staining. To study changes in mitochondrial membrane potential, Mitoprobe TMRM kit (ThermoFisher) was used according to the manufacturer's instructions. Cell proliferation was assessed by CellTrace Violet (Invitrogen, C34557) at a concentration of 5 μM according to manufacturer's instructions. For human samples, cells were stained as described above with Fixable Viability Dye-eF780, αCD95-BV421 (DX2; 562616), αCD62L-PE (DREG-56; 555544), αCCR7-AF700 (150503; 561143), αCD45RO-APC (UCHL; 559865), αCD45RA-FITC (HI100; 555488), αCD8-PE-CF594 (RPA-T8; 562282) and αCD4-BV786 (OKT4; 566806) from BD."}, "human CD3^+ T cells": {"system": "human CD3^+ T cells", "assay": "aCD3/aCD28 stimulation of human T cells in presence of UA", "type": "cell-based", "source_text": "Finally, the inventors aimed to determine whether UA causes expansion of TSCM cells in human CD8^+ T cells. The inventors isolated human CD3^+ T cells from PBMCs of healthy donors and stimulated them with aCD3/aCD28 beads in vitro in the presence of UA (FIG. 6A). Indeed, UA increased the frequency of human TSCM cells based on the expression of CD45RA^+CCR7^HiCD62L^+CD95^+CD8^+ in five out of five individual donors (FIG. 6B).\nas §1, with “gradient.” for “gradient. T cells were enriched with EasySep Human T Cell Isolation Kit (StemCell) and activated with dynabead Human T-Activator CD3/CD28 for T Cell Expansion and Activation Kit (11131D; ThermoFisher Scientific), similar to murine T cell stimulation.”\nFor flow cytometric analysis of mitochondria and lysosomes 500 μl of Mitotracker Red (200 nM; ThermoFisher) or Lysotracker Red DND-99 (75 nM; ThermoFisher) were applied followed by surface staining. […] Cell proliferation was assessed by CellTrace Violet (Invitrogen, C34557) at a concentration of 5 μM according to manufacturer's instructions. […]"}, "[2]": {"details": "48 hours in presence of UA, prior to ACT"}, "[3]": {"details": "CD62L+CD44-CD8+ T cells, 48 h, UA 25 μM"}}, "data": [{"smiles": "O=c1oc2cc(O)ccc2c2ccc(O)cc12", "note": "[UA, Urolithin A]", "values": [{"measurement": "Th1/Th17 cell infiltration", "setting": "[1]", "value": "blocking"}, {"measurement": "TSCM formation, dependence on T cell activation", "setting": "Splenic murine T cells", "value": "only formed in activated T cells"}, {"measurement": "cyclin D1 expression", "setting": "Splenic murine T cells", "value": "reduced"}, {"measurement": "lysosome formation in CD8+ T cells", "setting": "Splenic murine T cells; 6 h, UA 50 μM", "value": "enhanced"}, {"measurement": "loss of mitochondrial content in T cell subsets (TSCM, TCM and TEFF)", "setting": "Splenic murine T cells; 24 h", "value": "detected in all T cell subsets analyzed"}, {"measurement": "number of CD44-CD62L+Sca1hi TSCM", "setting": "Splenic murine T cells; 24 h, 48 h and 72 h after aCD3/aCD28 stimulation", "value": "significantly increased"}, {"measurement": "CD95 expression of CD8+ T cells from OT-1 donors", "setting": "Splenic murine T cells; [2]", "value": "enhanced"}, {"measurement": "TSCM phenotype of CD8+ T cells from OT-1 donors", "setting": "Splenic murine T cells; [2]", "value": "displayed a TSCM phenotype"}, {"measurement": "TSCM formation in CD4+ cells", "setting": "Splenic murine T cells; CD4+ cells", "value": "did not promote enhanced TSCM formation"}, {"measurement": "frequency of TEM cells in CD4+ cells", "setting": "Splenic murine T cells; CD4+ cells, later timepoints", "value": "enhanced frequency"}, {"measurement": "naïve-like CD4+ cells", "setting": "Splenic murine T cells; CD4+ cells, later timepoints", "value": "less"}, {"measurement": "CD95 expression of TSCM", "setting": "Splenic murine T cells; [3]", "value": "increased"}, {"measurement": "mitochondrial membrane potential of TSCM (TMRM)", "setting": "Splenic murine T cells; [3]", "value": "reduced"}, {"measurement": "CD8+ T cell division", "setting": "Splenic murine T cells; CellTrace Violet", "value": "restricted"}, {"measurement": "differentiation into effector T cells (Granzyme B, IFNg expression)", "setting": "Splenic murine T cells; T cells from FVB mice, aCD3/aCD28 beads, 48 h, UA vs DMSO", "value": "blocked"}, {"measurement": "central memory cells (TCM)", "setting": "Splenic murine T cells; aCD3/aCD28, up to 72 hours", "value": "reduction"}, {"measurement": "frequency of effector memory cells (TEM)", "setting": "Splenic murine T cells; aCD3/aCD28, up to 72 hours", "value": "remained unaltered"}, {"measurement": "naïve CD44loCD62Lhi T cells", "setting": "Splenic murine T cells; aCD3/aCD28, up to 72 hours", "value": "significant increase"}, {"measurement": "mitochondrial content (MitoTracker Red) in CD8+ T cells", "setting": "Splenic murine T cells; after 24 hours", "value": "loss of mitochondrial content in a dose-dependent manner"}, {"measurement": "T cell death in vitro", "setting": "Splenic murine T cells; in vitro", "value": "dose-dependent T cell death"}, {"measurement": "PGC-1 expression in CD8+ T cells", "setting": "Splenic murine T cells; prolonged UA administration in vitro, 48 h, 50 μM", "value": "marked upregulation"}, {"measurement": "mitochondrial membrane potential in CD8+ T cells", "setting": "Splenic murine T cells; within six hours, UA 50 μM", "value": "reduction"}, {"measurement": "frequency of human TSCM cells (CD45RA+CCR7HiCD62L+CD95+CD8+)", "setting": "human CD3^+ T cells; 48 h, UA 50 μM, five out of five individual donors", "value": "increased"}, {"measurement": "TCF1 expression in human CD8+ T cells", "setting": "human CD3^+ T cells; 48 h, intracellular staining", "value": "increased"}, {"measurement": "mitochondrial membrane potential of human CD8+ T cells", "setting": "human CD3^+ T cells; after 48 hours", "value": "decreased"}]}]}
